Experiment [1] deals with Pellicularia filamentosa (f. sp. sasiki). In words: whole plant or invertebrate. It counts as in vivo. The conditions noted are these: 120 h; read-out: % control RSB.
Experiment [2] relates to Erysiphe graminis (f. sp. tritici). The experiment can be described thus: whole plant or invertebrate. It is filed as in vivo. The conditions noted are these: Blumeria graminis; read-out: % control WPM.
The test system of another experiment is Phytophthora infestans. In words: whole plant or invertebrate. It is filed as in vivo. Particulars: Phytophthora infestans, in Solanum lycopersicum, 96 h, read-out: % control TLB.
The next experiment concerns Piricularia oryzae. The experiment can be described thus: whole plant or invertebrate. It counts as in vivo. Particulars: Pyricularia oryzae, read-out: % control RB.
In a further experiment the test system is A.n. In words: Minimum Inhibitory Concentration Test, alternate (Table 4), A.n. It counts as cell-based, Aspergillus niger. The conditions noted are these: Aspergillus niger, TSB, 72 hours. Put shortly: (§1)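 Compound in acetone was diluted into TSB and serially diluted 1:1 from 250 ppm down to 0.8 ppm, in duplicate. Plates were inoculated with diluted 24 h culture and incubated 3 days at 30° C; MIC recorded as lowest concentration with no growth.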

Experiment [3] deals with Puccinia recondita (f. sp. tritici Races PKB and PLD). The experiment can be described thus: whole plant or invertebrate. It counts as in vivo. Particulars: Puccinia recondita, 240 h; read-out: % control WLR.
Experiment [4] concerns Pseudoperonospora cubensis. The experiment can be described thus: whole plant or invertebrate. It counts as in vivo. Particulars: Pseudoperonospora cubensis, in Cucumis sativus, 168 h; read-out: % control CDM.
For experiment [5], the system named is Puccinia graminis (f. sp. tritici Race 15B-2). The experiment can be described thus: whole plant or invertebrate. It counts as in vivo. Particulars: 336 h, read-out: % control WSR.
The next experiment relates to Pseudomonas fluorescens. In words: Minimum Inhibitory Concentration Test, alternate (Table 4), Ps.fl. It counts as cell-based. Particulars: Pseudomonas fluorescens, TSB, 72 hours, 30° C. Put shortly: as §1
A further experiment deals with Candida albicans (C.alb). In words: Minimum Inhibitory Concentration Test, alternate (Table 4), C.alb. Particulars: Candida albicans, TSB, 72 hours. It counts as cell-based. The method, then: (§2) A 125 μl aliquot of 10,000 ppm test compound in acetone was added to 4.88 ml of TSB to provide a 250 ppm solution. From this solution, 100 μL was transferred to the first row of two microtiter plate columns. Both replicates and five additional compounds were all serially diluted 1:1 to a final concentration of 0.8 ppm in TSB.
(§3) Inoculation was accomplished by diluting a 24 hr Ps fl culture, four mls per 36 mls of phosphate buffer solution. A Dynatech autoinoculator was used to transfer 1.5 μl of this cell suspension to the microtiter plates. The plates were incubated at 30° C. for 3 days before the lowest concentration at which no growth occurs was recorded in the database. The SOK data and MIC test data on Ps.fl, Ps.ae, E.c, and S.a. bacteria and Candida albicans (C.alb), A.n and A.p fungi are listed in Table 4.

In a further experiment the test system is E.c. In words: Minimum Inhibitory Concentration Test, alternate (Table 4), E.c. It counts as cell-based, Escherichia coli. The conditions noted are these: Escherichia coli, TSB, 72 hours. The method, then:
as §2, §3

The test system of the next experiment is S.a. In words: Minimum Inhibitory Concentration Test, alternate (Table 4), S.a. It is filed as cell-based, Staphylococcus aureus. Particulars: Staphylococcus aureus, TSB, 72 hours. The method, then:
as §2, §3

For a further experiment, the system named is A.p. In words: Minimum Inhibitory Concentration Test, alternate (Table 4), A.p. It counts as cell-based. The conditions noted are these: Aureobasidium pullulans, TSB, 72 hours. The method, then:
as §2, §3

The next experiment concerns Ps.ae. In words: Minimum Inhibitory Concentration Test, alternate (Table 4), Ps.ae. It counts as cell-based, Pseudomonas aerugenosa. The conditions noted are these: Pseudomonas, TSB, 72 hours.

Values after ≈ are worked out from the molar mass of the structure shown. Where only a bound is given, the exact number is not on record here.

Broadly, the MIC is the lowest concentration that inhibits growth of the organism. In the case of `CCCCCCCCNC(=O)/C=C\SC(C(=O)Nc1cccc(C)c1)C(=O)OCC` (stereo not drawn) [Example 54, N-n-octyl-cis-3-{2-[ethyl-N-(3-methylphenyl)malonamido]thio}acrylamide], the pest or weed control at 100 ppm was 0% in experiment [1]; 0% in experiment [2]; 80% with Phytophthora infestans; 87% in the experiment on Piricularia oryzae; 0% in [3]; 97% in experiment [4]. Also, the pest or weed control at 100 ppm in experiment [5] was found to be 0%. Besides, the MIC in the experiment on A.n and against Pseudomonas fluorescens was above 500 µg/mL in each case.

As to `CCCCCCCNC(=O)/C=C\SC(C(C)=O)C(C)=O` [Example 4, N-n-heptyl-cis-3-[3-(2,4-pentanedionyl)thio]acrylamide], the pest or weed control at 300 ppm in experiment [1] was found to be 0%; in experiment [5], 80%. In experiment [2], the pest or weed control at 100 ppm amounted to 0%. In addition, the values for the pest or weed control at 200 ppm (in the experiment on Phytophthora infestans; in the experiment with Piricularia oryzae; in experiment [4]) were 100%, 60% and 98%, respectively. Besides, the MIC with Candida albicans (C.alb) was below 4 µg/mL; against A.n, 16 to 63 µg/mL (≈ 53.4 to 210 µM); with E.c it was above 500 µg/mL; in the experiment with Pseudomonas fluorescens, above 500 µg/mL; in the experiment with S.a, 63 µg/mL (≈ 210 µM); in the experiment on A.p, below 4 µg/mL. The compound also returned an MIC in the experiment with Ps.ae above 500 µg/mL.

With `CCCCCCNC(=O)/C=C\SC(C(C)=O)C(C)=O` [Example 5, N-n-hexyl-cis-3-[3-(2,4-pentanedionyl)thio]acrylamide], the pest or weed control at 300 ppm amounted to 0% in [1], 0% in experiment [2] and 70% in experiment [5]. Besides, the pest or weed control at 200 ppm with Phytophthora infestans is 95%; in the experiment with Piricularia oryzae, 90%; in [4] it was 100%. Besides, the MIC was 16 µg/mL (≈ 56.1 µM) with Candida albicans (C.alb); 31 to 63 µg/mL (≈ 109 to 221 µM) against A.n; above 500 µg/mL against E.c; above 500 µg/mL with Pseudomonas fluorescens; 63 to 125 µg/mL (≈ 221 to 438 µM) with S.a; below 4 µg/mL in the experiment with A.p. In addition, the MIC in the experiment on Ps.ae was above 500 µg/mL.

With `CCCCCCNC(=O)/C(Cl)=C(/Cl)SC(C(C)=O)C(C)=O` [Example 7, N-n-hexyl-2,3-dichloro-cis-3-[3-(2,4-pentanedionyl)thio]acrylamide], the pest or weed control at 300 ppm stood at 0% in [1]; 0% in experiment [2]; 20% with Phytophthora infestans; 95% in experiment [4]; 60% in experiment [5]. The MIC is 31 µg/mL (≈ 87.5 µM) against Candida albicans (C.alb); 8 to 63 µg/mL (≈ 22.6 to 178 µM) against A.n; 125 µg/mL (≈ 353 µM) against E.c; 250 to 500 µg/mL (≈ 706 to 1410 µM) in the experiment with Pseudomonas fluorescens; 125 µg/mL (≈ 353 µM) in the experiment with S.a; 8 µg/mL (≈ 22.6 µM) in the experiment on A.p. The same compound gave an MIC with Ps.ae of 500 µg/mL (≈ 1410 µM).

With `CCCCCNC(=O)/C=C\SC(C(C)=O)C(C)=O` [Example 3, N-n-pentyl-cis-3-[3-(2,4-pentanedionyl)thio]acrylamide], the pest or weed control at 300 ppm in experiment [1] is 0%; in the experiment on Piricularia oryzae, 0%; in experiment [4], 98%; in [5], 60%. For the same compound, the pest or weed control at 100 ppm was determined as 0% in experiment [2] and 40% in the experiment with Phytophthora infestans. The MIC against Candida albicans (C.alb) is 31 µg/mL (≈ 114 µM); with A.n it was 31 to 63 µg/mL (≈ 114 to 232 µM); in the experiment with E.c, 125 to 250 µg/mL (≈ 461 to 921 µM); in the experiment on Pseudomonas fluorescens it was above 500 µg/mL; with S.a it was 125 µg/mL (≈ 461 µM); against A.p, 8 µg/mL (≈ 29.5 µM). The compound also registered an MIC in the experiment with Ps.ae above 500 µg/mL.

On to `CCCCCCCCNC(=O)/C=C\SC(C(=O)Nc1ccccc1OC)C(=O)OCC` (stereo not drawn) [Example 53, N-n-octyl-cis-3-{2-[ethyl-N-(2-methoxyphenyl)malonamido]thio}acrylamide], for which the pest or weed control at 100 ppm came out at 0% in experiment [1]; 0% in experiment [2]; 97% in the experiment on Phytophthora infestans; 90% with Piricularia oryzae; 0% in experiment [3]; 100% in experiment [4]. Moreover, in experiment [5], the pest or weed control at 100 ppm was found to be 0%. Further, the MIC was 500 µg/mL (≈ 1110 µM) in the experiment on A.n and above 500 µg/mL against Pseudomonas fluorescens.

In the case of `CCCCCCCCNC(=O)/C=C\SC(C(C)=O)C(=O)CC` (stereo not drawn) [Example 10, N-n-octyl-cis-3-[3-(2,4-hexanedionyl)thio]acrylamide], the pest or weed control at 200 ppm was 0% in experiment [1]; 30% in experiment [2]; 98% with Phytophthora infestans; 95% with Piricularia oryzae; 100% in experiment [4]; 80% in [5]. The MIC in the experiment with A.n and in the experiment on Pseudomonas fluorescens was above 500 µg/mL in each case.

As to `CCCCCCCCNC(=O)/C=C\SC(C(=O)c1ccccc1)C(=O)c1cccn1C` (stereo not drawn) [Example 68, N-n-octyl-cis-3-{2-[1-phenyl-3-(1-methylpyrroyl-2-yl)-1,3-propanedionyl]thio}acrylamide], the pest or weed control at 100 ppm in experiment [1] came out at 0%; in [2], 0%; in the experiment with Phytophthora infestans, 60%; in the experiment on Piricularia oryzae, 80%; in experiment [3] it was 0%; in experiment [5], 0%. In addition, the MIC against Pseudomonas fluorescens was above 250 µg/mL.

As to `CCCCCCCCNC(=O)/C=C\SC(C(=O)c1ccccc1)C(=O)c1ccccc1` [Example 67, N-n-octyl-cis-3-[2-(1,3-diphenyl-1,3-propanedionyl)thio]acrylamide], the pest or weed control at 100 ppm in [1] is 0%; in [2], 0%; in the experiment on Phytophthora infestans it was 0%; in the experiment with Piricularia oryzae, 90%; in experiment [3], 0%; in experiment [5], 0%.

(Values after US5118681A (priority 1989, dated 1992).)
